Reference: publication PMC11468294, “Peptide Amphiphiles as Biodegradable Adjuvants for Efficient Retroviral Gene Delivery” (Advanced Healthcare Materials, 2023)
“Also recorded” adds a separate entry of the source. Where a SMILES comes first, the peptide text is derived from it. The star is where a group is joined. X1 = CC/C=C\C/C=C\C/C=C\CCCCCCCC(=O)*; Palmitoyl = CCCCCCCCCCCCCCCC(=O)*

Columns and labels:
[1] = Microscopic aggregation (fluorescence / confocal microscopy, derived count rate); type: physicochemical; settings: fibrils preformed at 1 mg mL-1 in PBS; ThT or Proteostat stain, widefield or confocal microscopy; derived count rate > 1000 kcps as criterion
Experimental: (§1) Transmission electron microscopy (TEM) measurements, Thioflavin (ThT), zeta‐potential measurements for fibril characterization, ATR‐IR spectra acquisition and the calculation of β−sheet were prepared and conducted analogous to a previous report.^[ [20], [86] ^] […] Fibrils were defined as distinct, if no visible structures could be identified in fluorescence and brightfield microscopy. […] The derived count rate of the zeta‐potential measurement was used as information on the light scattering intensity and turbidity of the sample as a further indicator for microscopic aggregation.^[ [90] ^]
Fluorescence microscopy: 1 µL Fibrils (1 mg mL^−1) were stained with 9 µL, 50 µM ThT. 10 µL of the stained fibrils (0.1 mg mL^−1) were placed on a microscopy glass. Fluorescence microscopy measurements were performed on a Leica DMi8 microscope with 10x air objective and equipped with a Leica MC170 HD camera with a filter setting λem = 527/30 nm upon excitation at λex = 480/40 nm) and processed with the Leica LASX software.
7 Effects of PA modifications on properties and activity
To investigate the effects of modification in the PA sequence, we created various peptide amphiphiles derived from PA1 by varying the (I) hydrophobic moiety, (II) the linkage chemistry and (III) the peptide sequence (Figure S12, SI chapter 7.1 – 7.3). The color code for sequence representation is yellow for the hydrophobic moiety, blue for cationic amino acids, red for non-polar amino acids, purple for polar uncharged amino acids, and green for anionic amino acids. To be concise, only the summarized information will be discussed, all original data for the peptides are summarized in the (Figure S26 - […]
Figure S12 Summarized overview of peptide amphiphile library in which systematic variations the original sequence […]
chemistry and (III) the peptide sequence on infectivity enhancement and degradability (see SI chapter 7.1 – 7.3).
In the following section a compound is considered infectivity enhancing if n-fold infectivity at 1.3 µM is larger than 2. A compound is considered to form µm-sized aggregates if visible particles were observed in widefield microscopy (brightfield or ThT-staining filter, objective 10x) or confocal […]
than 1000 kcps in Zeta-Potential measurements.
For the degradability only the PAs which could be stained with Proteostat (Figure S26) and were visible in microscopy (Figure S15, Figure S18, Figure S21, and Figure S22) were studied in detail. To determine […]
whether a PA is degraded or not, Proteostat stained PAs which are added to Hela cells (2 µg peptide added to 20.000 cells) and studied via confocal laser scanning microscopy. […]
In the following, we will distinguish between three aggregation types for fibrillar structures: Fibrils which were not aggregating (below resolution limit of the microscope, approx. 650 nm), moderately aggregating (< 50 µm2) and aggregating to large particles (> 50 µm 2).
7.1 Effects of hydrophobic moiety exchange on properties and activity
To investigate the effects of varying hydrophobic moieties on assembly, aggregation and activity , we

[2] = TEM morphology of peptide assemblies; type: physicochemical; settings: diluted from DMSO stock (10 mg mL-1) to 1 mg mL-1 in PBS, incubated 1 d at rt
Experimental: as §1
TEM: 5 µL of fibrils (1 mg mL^−1) were placed on 300 mesh, Formvar layered copper grids. After 10 min incubation time, the grids were staining with 4% uranyl acetate solution for 2.5 min. After
three washing steps with dd H2O excess solvent was removed by filter paper. Measurements
were performed on a Jeol 1400 electron microscope with 120 kV acceleration voltage.

HeLa cells = experiment: Cell-PA interaction by confocal laser scanning microscopy; type: cell-based; settings: peptide 20 µg mL-1 added for 30 min, washed, Proteostat stain
Experimental: Confocal laser scanning microscopy and degradation study with PA1‐3 and HeLa cells: HeLa cells were seeded one day prior to conducting the assay (40000/well) in an 8‐well IBIDI slide. 4 µL of the preformed peptide fibrils (1 mg mL^−1) were diluted with 4 µL Proteostat (Enzo Life Science, 1 µL stock in 999 µL PBS) and incubated for 10 min and further diluted with medium to receive a final peptide concentration of 20 µg mL^−1. The nucleus of the HeLa cells was stained with Hoechst 33 342 (NucBlue, Thermo Fisher Scientific). The peptide solution was transferred to the HeLa cells and incubated for 30 min at 37°C before washing three times with PBS. The interaction of fibril clusters with cells was monitored after 30 min incubation time on a Stellaris 8 confocal laser scanning microscope (Leica) equipped with a 20x air objective and laser excitation wavelengths of 405 nm (Hoechst) and 561 nm (Proteostat). For the evaluation of aggregate degradation, the samples were further incubated at 37°C for 3 d and analyzed without any additional washing step. The evaluation of aggregate size and number was conducted by analyzing Proteostat stained aggregates via the 3D objects counter function of ImageJ 1.53f51 for 3 individual measurements (area 581.25 µm × 581.25 µm). […] The number of aggregates larger than 10 µm^2 were counted via the 3D objects counter function of ImageJ 1.53f51. The mean number and standard deviations were determined by averaging at least three technical triplicates.
Figure S6 Laser scanning microscopy micrographs of A cells only (control), and Proteostat-stained (red) peptides B EF-
C ([…]), C PA1, D PA2, E PA3, F P1, G P2, H P3 added to HeLa cells (nucleus in blue). The peptides (20 µg mL-
1) were added to cells for 30 min, washed and analyzed. […]

[3] = Zeta-potential measurement; type: physicochemical
Experimental: Zeta‐potential: 60 µL of the peptides (1 mg mL^−1) were diluted in 600 µL, 1 mM KCl solution and placed in a disposable folded capillary cuvette. All zeta‐potential measurements (Zetasizer, Malvern Instruments) were conducted in triplicates for each sample.

[4] = ATR-FT-IR β-sheet content; type: physicochemical; settings: ATR-IR of lyophilized fibril solutions (1 mg mL-1, PBS); peak integration at 1630 cm-1 in 2nd derivative of amide I region
Experimental: ATR‐FT‐IR: ATR‐IR spectra acquisition and the calculation of β−sheet content were conducted according to a previous report.^[ [20] ^] Briefly, FT‐IR spectra of solid samples were recorded after lyophilization of fibril solutions using a Bruker Tensor II spectrometer equipped with a diamond crystal as ATR element with a spectral resolution of 2 cm–1, each spectrum was an average of 64 scans. The data was processed with Origin software. β−sheet amount was determined by calculating the integral of the peak at 1630 cm^−1 (β‐sheet) relative to the integral between 1650–1700 cm^−1 (native structure) from the 2nd derivative of the FT‐IR spectra.

[5] = tested on: HIV-1 infection of TZM-bl cells; experiment: HIV-1 infection assay (β-galactosidase luminescence reporter); type: cell-based
Experimental: HIV‐1 Infection Assay: The effect of peptide fibrils on HIV‐1 infection was studied via a luminescence assay for β‐galactosidase, which was reported by TZM‐bl cells upon infection. 10000 TZM‐bl cells were seeded in 180 µl supplemented DMEM one day prior infection. The cells were inoculated with 20 µl PNF solution 1:1 (v/v) mixed with virus (1:500 dilution) after an incubation time of 10 min. The HIV‐1 infection assay was conducted in three technical replicates and repeated in three independent experiments unless stated otherwise. The assay was conducted as described before.^[ [20] ^]

ThT fluorescence = type: physicochemical; parameters: key: + = ThT active; − = no ThT fluorescence observed; settings: 1 mg mL-1 in PBS; ThT-active if fluorescence at least twice the control (PBS with 10% DMSO)
Experimental: ThT‐fluorescence: 20 µL 50 µM of ThT solution in PBS was pipetted in a black 384 well‐plate and 4 µL of the nanofibril solution 1 mg mL^−1 were added. For reference PBS with 10% DMSO (4 µL) instead of fibril solution was added. Subsequently, fluorescence emission was recorded λem = 488 nm upon excitation at λex = 440 nm with 10 nm bandwidth and multiple reads per well (3 × 3) using a Spark 20 M microplate reader (Tecan Group, Ltd). Data processing was performed with Origin software. A peptide fibril was considered as ThT‐active if the fluorescence intensity was at least twice as strong compared to the control (PBS containing 10% DMSO).

[6] = infectivity enhancing if n-fold at 1.3 µM larger than 2

Structure (SMILES)	formation of µm-sized aggregates (in words) [1]	morphology of peptide assemblies / fibril formation (TEM) [2]	association with cellular membranes (HeLa cells)	Zeta-Potential ([3]; fibrils 1 mg mL-1 in PBS, 60 µL diluted in 600 µL 1 mM KCl, triplicates) [mV]	β-sheet content [4] [%]	infectivity enhancement of HIV-1 (in words) [5, 6]	ThT fluorescence (ThT fluorescence)	morphology of peptide assemblies / fibril formation (TEM) ([2]; listed as alpha linolenic acid)	zeta-potential (in words) ([3]; 1 mg mL-1 in PBS, diluted in 1 mM KCl)	infectivity enhancement of HIV-1 (in words) ([5]; infectivity enhancing if n-fold at 1.3 µM larger than 2, listed as alpha linolenic acid)
CCCCCCCCCCCCCCCC(=O)N[C@H](C(=O)N[C@H](C(=O)N[C@H](C(=O)N[C@@H](C)C(=O)N[C@@H](C)C(=O)N[C@@H](C)C(=O)N[C@@H](CCC(=O)O)C(=O)N[C@@H](CCC(=O)O)C(=O)N[C@@H](CCC(=O)O)C(N)=O)C(C)C)C(C)C)C(C)C [PA3] (Palmitoyl-VVVAAAEEE-NH2)	did not bundle or adopt µm‐sized aggregates in PBS	distinct fibrils	does not associate with cells	−29.8 ± 2.7	61	Inactive	+	–	–	–
CC/C=C\C/C=C\C/C=C\CCCCCCCC(=O)N[C@H](C(=O)N[C@H](C(=O)N[C@H](C(=O)N[C@@H](C)C(=O)N[C@@H](C)C(=O)N[C@@H](C)C(=O)N[C@@H](CCCCN)C(=O)N[C@@H](CCCCN)C(=O)N[C@@H](CCCCN)C(N)=O)C(C)C)C(C)C)C(C)C (X1-VVVAAAKKK-NH2)	do not aggregate	cannot self‐assemble into fibrils	–	–	–	Inactive	–	neither forming fibrils, nor it is aggregating or active	neutral zeta-potential	not able to maintain activity
CCCCCCCCCCCCCCCC(=O)N[C@@H](C)C(=O)NCC(=O)NCC(=O)N[C@@H](CCCNC(=N)N)C(=O)N[C@H](C(=O)N[C@@H](CCCCN)C(N)=O)C(C)C [C16-AGGRVK-NH2] (Palmitoyl-AGGRVK-NH2)	not forming µm-sized aggregates and forming too few/less aggregates, respectively; also recorded: no aggregation	–	did not associate with cells	–	–	–	–	–	–	–
